This is an account of results in publication PMC10571957, “αV-Integrin-Dependent Inhibition of Glioblastoma Cell Migration, Invasion and Vasculogenic Mimicry by the uPAcyclin Decapeptide” (Cancers, 2023).

Data set [1] concerns U87-MG cells. Description: Vasculogenic mimicry (tube formation on Geltrex), U87-MG. It is filed as cell-based, human. Conditions: for reduction in branching points: 24 h, Geltrex. The protocol: The tube formation assay was performed in 96-well plates pre-coated with 50 µL/well of Geltrex^TM (Thermofisher, Scientific, Waltham, MA, USA), and polymerized for 30 min at 37 °C. Briefly, 3 × 10^4 U87-MG, 1.5 × 10^4 U251, and 1 × 10^4 C6 cells/100µL/well were plated onto Geltrex^TM and monitored at 37 °C for the indicated times. The specific effectors were included at time 0. The formation of vascular-like structures by Geltrex^TM-plated U87-MG and U251-MG cells was monitored for 24 h, whereas C6 cells were tested for 16 h. The evaluation of the branching point number, defined as the intersection of at least 3 tubes [24], was performed using the Inverted Microscope DMI Leica 6000 for the U87-MG and U251-MG cells and the Inverted Microscope Axiovert 25 for the C6 cells. At the indicated times, the number of “branching points” was assessed in 4/5 random fields using the ImageJ 1.52a Software.
Figure 6 Vascular mimicry formation by U87-MG and effect of uPAcyclin. (A) Representative images of U87-MG cells pre-treated or not (untreated) for 40 min at 37 °C with uPAcyclin (1 nM and 100 nM) and then plated onto Geltrex^TM in multiwell-96 (3 × 10^4/well). As a control, cells were grown in the presence of DMEM/10% FBS (No matrix) or with Geltrex^TM (Untreated, Untd). Images are taken at 24 h using the Inverted Microscope DMI Leica 6000 with 50× total magnification, scale bar: 75 µm. (B) The quantitation of branching points, defined as the intersection of at least three tubes [24], was performed at 4, 8, and 24 h either in control cells and cells pre-treated for 40 min at 37 °C with 10 pM, 1 nM, and 100 nM uPAcyclin before plating onto Geltrex^TM. (C) U87-MG cells were pre-treated with uPAcyclin or with S-uPAcyclin, at the indicated concentrations, plated onto Geltrex^TM and, 24 h later, the number of branching points was evaluated and reported in the histogram (* p-value < 0.05; ** p-value < 0.005; *** p-value < 0.001).

For data set [2], the system named is U87-MG cells. Description: Cell viability/proliferation (Trypan blue, MTT), U87-MG. Format: cell-based, human. The note with it: 1 nM or 100 nM, 72–96 h. The protocol:
Cell viability was tested in DMEM/10% FBS, in the presence of 1 nM or 100 nM uPAcyclin, either by Trypan blue exclusion or by thiazolyl blue tetrazolium bromide (MTT) assays, as specified in the figure legends. For the Trypan blue assay, 4 × 10^4 U87-MG, U251-MG, U138-MG, and C6 cells/sample were grown in 12-well plates, and followed for 24, 48 and 72 h. As a negative control, the cells were grown in a serum-free medium. Then, the cells were detached, stained with a 0.2% (w/v) Trypan blue solution, counted using a Burker chamber (T0 = 100%), and reported as number of viable cells/total.
For the MTT assay, 5 × 10^3 U87-MG and C6 cells/well were grown in 96-well plates for 24 h and tested as previously described. Briefly, MTT (Invitrogen-Life Technologies, Eugene, OR, USA) 5 mg/mL in a PBS solution was added to wells at a 10% final concentration, and incubated for 3 h at 37 °C, followed by the addition of stop solution (100 µL of DMSO/well) for 1 h at room temperature. Then, the optical densities were measured at 495 nm using the Microplate Reader (Synergy HT, Bio-Tek, Winoosky, VT, USA). The cell viability rate was calculated as a percentage by reporting the mean absorbance of treated groups to control groups, as follows: Cell viability rate (%) = (Atreated group/Acontrol group) × 100.

In data set [3] the test system is cancer-associated fibroblasts (CAFs) from breast cancer patients. Conditions: ref [30]; cited from earlier work. The source says:
Thus, in the present work, we investigated the effects of the anti-migratory uPAcyclin decapeptide, binding to the αV integrin subunit. This cyclic decapeptide is derived from a non-catalytic region of the human urokinase (uPA) plasminogen activator. The growth factor domain (GFD, residues 1–49) and the connecting peptide region (CP, residues 132–158) confer to the full uPA a clearcut motogen activity. While the GFD binds to the urokinase receptor (uPAR), the CP region binds to the αV integrin subunit.

Turning to “Ac-K^1P[ESPPEELK^10]-NH2 (sidechain bridge or staple) [uPAcyclin]”, the “branching point number, in words” value in the data set with U87-MG cells [1] (10 pM, 10 nM (legend: 1 nM), 100 nM, U87-MG, 4, 8, 24 h) is “concentration-dependent reduction in the branching point number”. In addition, the “reduction in branching points” value with U87-MG cells [1] (1 nM, U87-MG) is recorded as “approximately 60%”; in the data set with U87-MG cells [1] (100 nM, U87-MG) it was “approximately 60%”. Moreover, the “VM formation by time-lapse videomicroscopy, in words” value in the data set on U87-MG cells [1] (100 nM, U87-MG, 14 h, serum-free) was “inhibited and delayed”. Further, in the data set on U87-MG cells [2], the proliferation/viability entry is reported as “unaffected by uPAcyclin, regardless of the concentration employed”. Moreover, the “pro-invasive ability of CAFs” value in data set [3] was “inhibited the pro-invasive ability of cancer-associated fibroblasts”.

Consider “Ac-PS[EELKPEPK]-NH2 (sidechain bridge or staple) [S-uPAcyclin, scrambled control peptide]”, for which, in the data set on U87-MG cells [1] (scrambled control, U87-MG), the “reduction in branching points” value was “approximately 20%”.
